We go through one substance from patent publication US8883124B2, “Use of fullerenes in photoacoustic imaging” (University of Florida Research Foundation, Inc., priority 2007, dated 2014).

Data set [1] can be described thus: Water solubility. It is filed as physicochemical.
For data set [2], the system named is mouse tumor. The experiment in a line: In vivo PAT of mouse tumor after intratumoral injection. Here is the method: In vivo experiments were carried with mouse tumor model. Six to eight week old BALB/c nude mice (CAnN.Cg-Foxn1nu/Crl) were purchased from Charles River and acclimated for 7 to 10 days. Supplemental estrogen (2 μg of 17β-estradiol valerate/week) was placed subcutaneously at least 1 week prior to tumor implantation. Mice were subcutaneously inoculated with 2×10^7 BT474 cells on the abdominal wall. Experiments were conducted 7-10 days following implantation, after the tumors had reached approximately 10 mm in size.
A volume of 30 μL of nanoparticle suspension (10 mg/mL for PHF and 0.45 mg/mL for CP-0.25) was injected into the mouse tumor. The mouse was placed in the water tank on an inclined plane with its head above the water surface. The PAT instrumentation for in vivo experiments was similar to that described for in vitro experiments, except that acoustic signals were collected over 300° range, giving a total of 100 measurements for each trial. PAT images of mouse tumor were obtained before and after injecting nanoparticles.

On to Polyhydroxy fullerenes [PHF], for which the water solubility result in data set [1] is on record as “water-soluble”. Moreover, in data set [2] (mouse tumor (BT474, BALB/c nude mice), intratumoral injection of 30 μL of 10 mg/mL, before vs after), the “PAT signal in the region of the tumor after injection” value was “large increase in PAT signal”. In data set [2] (mouse tumor, 30 μL intratumoral, 10 mg/mL for PHF and 0.45 mg/mL for CP-0.25), the “contrast with the tumor and surrounding non-tumoral tissue in vivo using PAT” value is “excellent contrast”.
